{
  "source": "patent US20240016826A1",
  "about": "“COMPOSITION, PHARMACEUTICAL COMPOSITION, USE OF A STABLE TOPICAL COMPOSITION COMPRISING A NANOEMULSION AND OF AT LEAST ONE ANTILEISHMANIAL COMPOUND, AND METHOD FOR THE TREATMENT OF CUTANEOUS LEISHMANIASIS” (priority 2020, published 2024)",
  "origin": "cited, not measured here",
  "tested_on": "L. (L.) major",
  "details": "Old World patients, cutaneous leishmaniasis due to L. (L.) major (MOHEBALI et al., 2007)",
  "data": [
    {"smiles": "CCCCCCCCCCCCCCCCOP(=O)([O-])OCC[N+](C)(C)C", "note": "[miltefosine, hexadecylphosphocholine]", "values": [
      {"measurement": "cure rate", "result": 93, "unit": "%"}
    ]}
  ]
}
